Measurements from US20090149417A1, “Methods and compositions for the treatment of cancer using benzopyrone-type PARP inhibitors” (priority 2007, published 2009).

Assays:
[1] = system: human MX-1 breast carcinoma; test: Human MX-1 breast carcinoma xenograft model in nude mice; assay type: in vivo
Experimental: (§1) Female athymic nude mice (nu/nu, Harlan) are 10 weeks old, and have a body weight (BW) range of 18.1-27.0 g on D1 of the study. The animals are fed ad libitu water (reverse osmosis, 1 ppm Cl) and NIH 31 Modified and Irradiated Lab Diet® consisting of 18.0% crude protein, 5.0% crude fat, and 5.0% crude fiber. The mice are housed on irradiated ALPHA-dri® bed-o-cobs® Laboratory Animal Bedding in static microisolators on a 12-hour light cycle at 21-22° C. (70-72° F.) and 40-60% humidity. PRC specifically complies with the recommendations of the Guide for Care and Use of Laboratory Animals with respect to restraint, husbandry, surgical procedures, feed and fluid regulation, and veterinary care. […]
The human MX-1 breast carcinoma utilized in the present study is maintained in nude mice by serial engraftment. […] Tumors are monitored twice weekly and then daily as their volumes approached 80-120 mm^3. […] Tumor size, in mm3, is calculated from: […]
(§2) Tumors are calipered twice weekly for the duration of the study. […] The time to endpoint (TTE) for each mouse is calculated according to the following equation: […]
(§3) where TTE is expressed in days, endpoint volume is in mm3, b is the intercept, and m is the slope of the line obtained by linear regression of a log-transformed tumor growth data set. […] The calculated TTE is usually less than the day on which an animal is euthanized for tumor size. […]

[2] = system: human SW620 colon adenocarcinoma; test: Human SW620 colon adenocarcinoma xenograft model in nude mice; assay type: in vivo
Experimental: as §1, with “The” for “Female athymic nude mice (nu/nu, Harlan) are 10 weeks old, and have a body weight (BW) range of 18.1-27.0 g on D1 of the study. The”
The human SW620 colon adenocarcinoma utilized in the present study is maintained in nude mice by serial engraftment. […] Tumors are monitored twice weekly and then daily as their volumes approached 80-120 mm^3. […] Tumor size, in mm3, is calculated from: […]
as §2, §3

[3] = once-daily or twice-weekly administration

## O=c1ccc2c(I)c([N+](=O)[O-])ccc2o1 [IIIg, 5-iodo-6-nitro-benzopyrone]
[1]; biweekly intraperitoneal injection, 100 mg/kg
  Survival of tumor-bearing animals: prolongs survival
[1]; [3]
  Tumor growth: inhibits tumor growth
[2]; biweekly intraperitoneal injection, 50 mg/kg
  Survival of tumor-bearing animals: prolongs survival
[2]; [3]
  Tumor growth: inhibits tumor growth
